Measurements published in PMC9229294, “Pyridazinones and Structurally Related Derivatives with Anti-Inflammatory Activity” (Molecules, 2022).
Like-named read-outs stand apart in the source and are kept apart here.

Columns and labels:
[1] = molecular target: T1, FPR2 (Homo sapiens, UniProt P25090); settings: FPR2-transfected HL-60 cells, read-out: Ca2+ Mobilization FPR2 EC50 in HL-60 Cells, cited from earlier work
T1 construct: expressed in transfected cells; host or cells: HL-60 cells (FPR2-HL60)
T1 sequence (P25090 1-351): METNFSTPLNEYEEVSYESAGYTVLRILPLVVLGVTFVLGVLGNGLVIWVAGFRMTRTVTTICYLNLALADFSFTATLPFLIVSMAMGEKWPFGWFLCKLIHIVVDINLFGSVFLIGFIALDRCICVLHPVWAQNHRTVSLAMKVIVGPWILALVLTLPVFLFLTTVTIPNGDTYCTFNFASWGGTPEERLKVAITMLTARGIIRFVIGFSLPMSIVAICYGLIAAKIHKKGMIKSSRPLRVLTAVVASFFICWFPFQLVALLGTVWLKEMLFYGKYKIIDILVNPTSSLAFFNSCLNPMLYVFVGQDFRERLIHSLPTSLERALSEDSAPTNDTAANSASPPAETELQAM

[2] = Cytotoxicity, CellTiter-Glo, MonoMac-6 cells; type: cell-based, human; settings: human, MonoMac-6 cells
Protocol: (§1) Our studies included 175 compounds that were previously synthesized and characterized at NEUROFARBA, Pharmaceutical and Nutraceutical Section, University of Florence, Italy. We previously evaluated the FPR1/FPR2 agonist activity of these compounds by evaluating their ability to induce Ca^2+ mobilization in FPR-transfected HL60 cells and human neutrophils. […] All test compounds were dissolved in DMSO at stock concentrations of 10 mM and stored at −20 °C. For primary screening assays (analysis of NF-κB activation, IL-6 production, and cytotoxicity), the following final concentrations of the compounds were used: 3.125, 6.25, 12.5, 25, and 50 µM; the final concentration of DMSO was 1% in all samples.
(§2) The cytotoxicity was analyzed with a CellTiter-Glo Luminescent Cell Viability Assay Kit from Promega (Madison, WI, USA), according to the manufacturer’s protocol. The luminescent ATP assays are based on a luciferase enzymatic reaction which uses ATP from viable cells to generate photons. For this assay, the cells were incubated with the compounds under investigation for 24 h. After treatment, the cells were equilibrated to room temperature for 30 min, luciferase + luciferin substrate was added, and the samples were analyzed with a Fluoroscan Ascent FL (Thermo Fisher Scientific, Waltham, MA, USA). The IC50 values were calculated by plotting the percentage inhibition against the logarithm of the inhibitor concentration (at least five points).

[3] = test system: LPS-induced IL-6 production in MonoMac-6 cells; assay: Inhibition of LPS-induced IL-6 production in MonoMac-6 cells (ELISA); type: cell-based, human; settings: for IC50: Homo sapiens; for Inhibition of LPS-induced IL-6 production (in words): MonoMac-6 cells, 250 ng/mL LPS, 24 h
Protocol: as §1
A human IL-6 ELISA kit (BD Biosciences, San Jose, CA, USA) was used to measure IL-6 production. […] The cells were pretreated with the test compound or DMSO for 30 min, followed by addition of 250 ng/mL LPS for 24 h. The IC50 values for IL-6 production were calculated by plotting the percentage inhibition against the logarithm of the inhibitor concentration (at least five points).

[4] = Cytotoxicity, CellTiter-Glo, THP1-Blue cells; type: cell-based, human; settings: human, THP1-Blue cells; N.T. = no cytotoxicity at 50 µM; read-out: Cytotoxicity IC50 in THP1-Blue Cells
Protocol: as §1, §2

[5] = test system: LPS-induced NF-κB activity in THP1-Blue cells; assay: Inhibition of LPS-induced NF-κB transcriptional activity, alkaline phosphatase reporter, THP1-Blue cells; type: cell-based, human; settings: for IC50: Homo sapiens, LPS-induced NF-κB activity, human THP1-Blue cells, N.A. = no activity at 50 µM; for Observed class for inhibition of NF-κB activity: experimentally observed, Active or N.A.; for Inhibition of LPS-induced NF-κB activity (in words): THP1-Blue cells, 250 ng/mL LPS, 24 h
Protocol: as §1
The activation of NF-κB was measured using an alkaline phosphatase reporter assay in human monocytic THP1-Blue cells stably transfected with a secreted embryonic alkaline phosphatase gene that is under the control of a promoter inducible by the NF-κB. The THP1-Blue cells (2 × 10^5 cells/well) were pretreated with the test compound or DMSO for 30 min, followed by an addition of 250 ng/mL LPS for 24 h. Alkaline phosphatase activity was determined in cell supernatants using a QUANTI-Blue mix (InvivoGen) and measured at 655 nm and compared with positive control samples (LPS).

[6] = molecular target: T2, FPR1 (Homo sapiens, UniProt P21462); settings: FPR1-transfected HL-60 cells, read-out: Ca2+ Mobilization FPR1 EC50 in HL-60 Cells, cited from earlier work
T2 construct: expressed in transfected cells; host or cells: HL-60 cells (FPR1-HL60)
T2 sequence (P21462 1-350): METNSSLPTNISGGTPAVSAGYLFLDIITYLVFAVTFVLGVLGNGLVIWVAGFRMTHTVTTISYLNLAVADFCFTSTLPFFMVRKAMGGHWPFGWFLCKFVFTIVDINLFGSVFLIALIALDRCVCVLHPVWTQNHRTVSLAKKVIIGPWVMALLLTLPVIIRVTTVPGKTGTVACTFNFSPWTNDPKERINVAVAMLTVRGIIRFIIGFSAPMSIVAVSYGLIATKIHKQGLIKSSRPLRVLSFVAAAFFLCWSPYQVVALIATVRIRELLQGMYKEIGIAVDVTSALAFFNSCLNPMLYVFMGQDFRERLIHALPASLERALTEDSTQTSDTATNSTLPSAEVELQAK

[7] = Table 3, as reported previously (see Table 1)
[8] = MONO-MAC-6, read-out: Inhibition of IL-6 Production IC50 in MonoMac-6 Cells
[9] = MONO-MAC-6, 24 h, read-out: IC50, LPS-induced IL-6 production

Compound | IC50 [3, 8] | IC50 [5] | IC50 [3, 9] | EC50 [1, 7] | IC50 at 24 h [2] | IC50 at 24 h [4] | Observed class for inhibition of NF-κB activity [5] | EC50 [6, 7] | EC50 ([1]; agonist activity from Table 1) | EC50 ([6]; agonist activity from Table 1) | Inhibition of LPS-induced IL-6 production (in words) [3] | Inhibition of LPS-induced NF-κB activity (in words) [5]
CCCn1cc(-c2cccc(OC)c2)c(=O)n(CC(=O)Nc2ccc(Br)cc2)c1=O [Compound 154] | 2.6 ± 0.3 µM | 25.6 ± 2.3 µM | – | – | > 50 µM | > 50 µM | Active | – | 2.4 µM | 3.3 µM | – | –
O=C(Cn1c(-c2ccc([N+](=O)[O-])cc2)csc1=O)Nc1ccc(Br)cc1 [Compound 169] | 3.2 ± 0.4 µM | 19.2 ± 0.1 µM | – | > 50 µM | > 50 µM | > 50 µM | Active | 9.1 µM | > 50 µM | – | potent IL-6 inhibitors | –
COc1cccc(Cc2cc(C)nn(C(C)(C)C(=O)Nc3ccc(Br)cc3)c2=O)c1 [Compound 89] | 27.9 ± 2.2 µM | 29.2 ± 1 µM | – | 20.4 µM | > 50 µM | > 50 µM | Active | 6.3 µM | 20.4 µM | 6.3 µM | – | –
COc1cccc(Cc2cc(-c3ccc(Cl)cc3)nn(CC(=O)Nc3ccc(F)cc3)c2=O)c1 [Compound 42] | 35.6 ± 3.1 µM | 22.5 ± 2.3 µM | – | > 50 µM | > 50 µM | > 50 µM | – | > 50 µM | > 50 µM | > 50 µM | inhibitors of IL-6 production | active
CC[C@](C)(C(=O)Nc1ccc(Br)cc1)n1nc(C)cc(Cc2cccc(OC)c2)c1=O [Compound 102] | 19 ± 3.1 µM | 22.1 ± 1.6 µM | – | 13.7 µM | > 50 µM | > 50 µM | – | 4.5 µM | 13.7 µM | 4.5 µM | – | –
COc1cccc(Cc2cc(-c3ccc(F)cc3)nn(CC(=O)Nc3ccc(F)cc3)c2=O)c1 [Compound 47] | 18.8 ± 2.9 µM | 3.4 ± 0.2 µM | – | > 50 µM | > 50 µM | > 50 µM | – | > 50 µM | > 50 µM | > 50 µM | inhibitors of IL-6 production | active
COc1ccc(-c2cc(Cc3cccc(OC)c3)c(=O)n(CC(=O)Nc3ccc(F)cc3)n2)cc1 [Compound 38] | 20.3 ± 1.8 µM | 19.6 ± 4.3 µM | – | > 50 µM | > 50 µM | > 50 µM | Active | > 50 µM | > 50 µM | > 50 µM | inhibitors of IL-6 production | –
COc1cccc(Cc2cc(-c3ccc(C)cc3)nn(CC(=O)Nc3ccc(F)cc3)c2=O)c1 [Compound 46] | > 50 µM | 8.2 ± 1.2 µM | – | > 50 µM | > 50 µM | > 50 µM | – | > 50 µM | > 50 µM | > 50 µM | inhibitors of IL-6 production | active
CC[C@@](C)(C(=O)Nc1ccc(Br)cc1)n1nc(C)cc(Cc2cccc(OC)c2)c1=O [Compound 103] | 7.3 ± 1.2 µM | 16.6 ± 0.6 µM | – | > 50 µM | > 50 µM | > 50 µM | – | 7 µM | > 50 µM | 7 µM | – | –
COc1cccc(-n2ccc(=O)n(CC(=O)Nc3ccc(Br)cc3)c2=O)c1 [Compound 150] | 4 ± 1.2 µM | 21.4 ± 3.5 µM | < 10 µM | – | > 50 µM | > 50 µM | Active | 4.3 µM | 3.6 µM | – | – | –
O=C(Cn1c(=O)ccn(-c2ccccc2)c1=O)Nc1ccc(Br)cc1 [Compound 153] | 10.7 ± 0.1 µM | 20.8 ± 0.5 µM | < 10 µM | 8.9 µM | > 50 µM | > 50 µM | Active | – | – | 12.5 µM | – | –

Further lines, with some results ahead:

IC50 [3, 8] | IC50 [5] | IC50 [3, 9] | Compound | EC50 [1, 7] | IC50 at 24 h [2] | IC50 at 24 h [4] | Observed class for inhibition of NF-κB activity [5] | EC50 [6, 7] | EC50 ([1]; agonist activity from Table 1) | EC50 ([6]; agonist activity from Table 1) | Inhibition of LPS-induced IL-6 production (in words) [3] | Inhibition of LPS-induced NF-κB activity (in words) [5]
17 ± 0.4 µM | 20.7 ± 0.7 µM | – | CCc1c(C)nn(CC(=O)Nc2ccc(Br)cc2)c(=O)c1Cc1cccc(OC)c1 [Compound 78] | 1.9 µM | > 50 µM | > 50 µM | Active | 3.2 µM | – | – | – | –
5.6 ± 0.3 µM | 10.6 ± 2.3 µM | – | CCC[C@H](C(=O)Nc1ccc(Br)cc1)n1nc(C)cc(Cc2cccc(OC)c2)c1=O [Compound 98] | 0.84 µM | > 50 µM | > 50 µM | – | 3 µM | 0.84 µM | 3 µM | – | –
14.3 ± 2 µM | 30.8 ± 6.7 µM | – | CC[C@H](C(=O)Nc1ccc(Br)cc1)n1nc(C)cc(Cc2cccc(OC)c2)c1=O [Compound 94] | 2.3 µM | > 50 µM | > 50 µM | – | 2.8 µM | 2.3 µM | 2.8 µM | – | –
9.8 ± 1 µM | 12.1 ± 2.4 µM | – | CC[C@@H](C(=O)Nc1ccc(Br)cc1)n1nc(C)cc(Cc2cccc(OC)c2)c1=O [Compound 95] | 22.2 µM | > 50 µM | > 50 µM | – | 13.4 µM | 22.2 µM | 13.4 µM | – | –
15.2 ± 0.2 µM | 14.6 ± 1.4 µM | – | CCCc1c(C)nn(CC(=O)Nc2ccc(Br)cc2)c(=O)c1Nc1cccc(OC)c1 [Compound 83] | > 50 µM | > 50 µM | > 50 µM | Active | > 50 µM | > 50 µM | > 50 µM | inhibitors of IL-6 production | –
13.7 ± 1.4 µM | 15.7 ± 1.4 µM | – | CCCc1c(C)nn(CC(=O)Nc2ccc(Br)cc2)c(=O)c1Cc1cccc(OC)c1 [Compound 79] | – | > 50 µM | > 50 µM | Active | – | 4.6 µM | 2.2 µM | – | –
33.5 ± 2.4 µM | 15 ± 1.5 µM | – | CCCCc1c(C)nn(CC(=O)Nc2ccc(Br)cc2)c(=O)c1Cc1cccc(OC)c1 [Compound 80] | 15.7 µM | > 50 µM | > 50 µM | Active | > 50 µM | – | > 50 µM | – | –
